Holding throughout (type): in vivo
Assay [1] deals with Lolium perenne (LOLPE). As to the kind of experiment: Pre-emergence herbicidal glasshouse test, Lolium perenne. As to conditions: 312 h, rate 250 g/ha, evaluated after 13 days, scale 100 = total damage to plant, 0 = no damage. The method, then:
(§1) Seeds of a variety of test species were sown in standard soil in pots. After cultivation for one day (pre-emergence) or after 8 days cultivation (post-emergence) under controlled conditions in a glasshouse (at 24/16° C., day/night; 14 hours light; 65% humidity), the plants were sprayed with an aqueous spray solution derived from the formulation of the technical active ingredient in acetone/water (50:50) solution containing 0.5% Tween 20 (polyoxyethelyene sorbitan monolaurate, CAS RN 9005-64-5). The test plants were then grown in a glasshouse under controlled conditions in a glasshouse (at 24/16° C., day/night; 14 hours light; 65% humidity) and watered twice daily. After 13 days for pre and post-emergence, the test was evaluated ([…] to plant; 0=no damage to plant).
(§2) Setaria faberi (SETFA), Lolium perenne (LOLPE), Alopecurus myosuroides (ALOMY), Echinochloa crus-galli (ECHCG) and Avena fatua (AVEFA).

Assay [2] has as its system Alopecurus myosuroides (ALOMY). As to the kind of experiment: Pre-emergence herbicidal glasshouse test, Alopecurus myosuroides. To be noted: Alopecurus myosuroides, 312 h, rate 250 g/ha, evaluated after 13 days, scale 100 = total damage to plant, 0 = no damage. The method, then: as §1, §2
The subject of assay [3] is Echinochloa crus-galli (ECHCG). Kind of assay: Pre-emergence herbicidal glasshouse test, Echinochloa crus-galli. As to conditions: Echinochloa crus-galli, 312 h, rate 250 g/ha, evaluated after 13 days, scale 100 = total damage to plant, 0 = no damage. The method, then: as §1, §2
Assay [4] deals with Avena fatua (AVEFA). Kind of assay: Pre-emergence herbicidal glasshouse test, Avena fatua. As to conditions: Avena fatua, 312 h, rate 250 g/ha, evaluated after 13 days, scale 100 = total damage to plant, 0 = no damage. As for the experimental part:
as §1, §2

Assay [5] has as its system Lolium perenne (LOLPE). Kind of assay: Post-emergence herbicidal glasshouse test, Lolium perenne. As to conditions: 312 h, rate 250 g/ha, evaluated after 13 days, scale 100 = total damage to plant, 0 = no damage. As for the experimental part: as §1, §2
Assay [6] deals with Alopecurus myosuroides (ALOMY). Kind of assay: Post-emergence herbicidal glasshouse test, Alopecurus myosuroides. To be noted: Alopecurus myosuroides, 312 h, rate 250 g/ha, evaluated after 13 days, scale 100 = total damage to plant, 0 = no damage. As for the experimental part: as §1, §2
For assay [7], the system named is Echinochloa crus-galli (ECHCG). Kind of assay: Post-emergence herbicidal glasshouse test, Echinochloa crus-galli. To be noted: Echinochloa crus-galli, 312 h, rate 250 g/ha, evaluated after 13 days, scale 100 = total damage to plant, 0 = no damage. The method, then:
as §1, §2

The subject of assay [8] is Avena fatua (AVEFA). Kind of assay: Post-emergence herbicidal glasshouse test, Avena fatua. As to conditions: Avena fatua, 312 h, rate 250 g/ha, evaluated after 13 days, scale 100 = total damage to plant, 0 = no damage. The method, then: as §1, §2

Molecules are shown by their SMILES.

As a reminder, the pest or weed control is the degree to which the test organism was suppressed or injured, in per cent. A high value points to strong suppression.

`CCc1cc(-c2ccc(Cl)c(F)c2)ccc1C1=C(O)C(C)(C)OC(C)(C)C1=O` [Compound A-42]: the pest or weed control at 250 g/ha in the assay with Lolium perenne (LOLPE) [1] stood at 90%; in assay [2], 10%; in assay [3] it was 90%; in the assay on Avena fatua (AVEFA) [4] it was 20%; in the assay with Lolium perenne (LOLPE) [5], 90%; in assay [6], 90%. In addition, the pest or weed control at 250 g/ha was found to be 100% in assay [7] and 80% with Avena fatua (AVEFA) [8].

Turning to `CCc1cc(-c2ccc(F)c(F)c2)ccc1C1=C(O)C(C)(C)OC(C)(C)C1=O` [Compound A-75], the pest or weed control at 250 g/ha in the assay with Lolium perenne (LOLPE) [1] was found to be 40%; in assay [2], 0%; in assay [3], 0%; in the assay on Avena fatua (AVEFA) [4], 30%; in the assay on Lolium perenne (LOLPE) [5], 100%; in assay [6], 90%. In addition, the pest or weed control at 250 g/ha worked out at 100% in assay [7] and 90% in the assay on Avena fatua (AVEFA) [8].

Consider `CCc1cc(-c2cccc(Cl)c2)ccc1C1=C(O)C(C)(C)OC(C)(C)C1=O` [Compound A-95], for which the pest or weed control at 250 g/ha amounted to 30% in the assay with Lolium perenne (LOLPE) [1]; 10% in assay [2]; 30% in assay [3]; 0% in the assay with Avena fatua (AVEFA) [4]; 80% in the assay with Lolium perenne (LOLPE) [5]; 80% in assay [6]. Moreover, the pest or weed control at 250 g/ha worked out at 80% in assay [7] and 50% with Avena fatua (AVEFA) [8].

For the compound `CCc1cc(-c2cc(F)c(F)c(F)c2)ccc1C1=C(O)C(C)(C)S(=O)(=O)C(C)(C)C1=O` [Compound B-18], the pest or weed control at 250 g/ha amounted to 50% in the assay on Lolium perenne (LOLPE) [1]; 30% in assay [2]; 30% in assay [3]; 30% in the assay on Avena fatua (AVEFA) [4]; 80% in the assay on Lolium perenne (LOLPE) [5]; 70% in assay [6]. Besides, the pest or weed control at 250 g/ha is 80% in assay [7] and 90% with Avena fatua (AVEFA) [8].

Regarding `CCc1cc(-c2ccc(F)cc2)ccc1C1=C(O)C(C)(COC)OC(C)(C)C1=O` (stereo not shown) [Compound A-101], the pest or weed control at 250 g/ha turned out to be 90% in the assay with Lolium perenne (LOLPE) [1]; 70% in assay [2]; 50% in assay [3]; 50% with Avena fatua (AVEFA) [4]; 100% in the assay with Lolium perenne (LOLPE) [5]; 100% in assay [6]. The pest or weed control at 250 g/ha (in assay [7]; in the assay with Avena fatua (AVEFA) [8]) was 100% throughout.

As for `CCc1cc(-c2cc(F)c(F)cc2F)ccc1C1=C(O)C(C)(C)C(=O)C(C)(C)C1=O` [Compound C-7], the pest or weed control at 250 g/ha came out at 20% in the assay on Lolium perenne (LOLPE) [1]; 30% in assay [2]; 0% in assay [3]; 0% in the assay on Avena fatua (AVEFA) [4]; 60% in the assay on Lolium perenne (LOLPE) [5]; 40% in assay [6]. For the same compound, the pest or weed control at 250 g/ha was found to be 40% in assay [7] and 10% in the assay on Avena fatua (AVEFA) [8].

`CCc1cc(-c2ccc(F)c(F)c2)ccc1C1=C(O)C(C)(C)S(=O)(=O)C(C)(C)C1=O` [Compound B-17]: the pest or weed control at 250 g/ha in the assay on Lolium perenne (LOLPE) [1] amounted to 50%; in assay [2] it was 50%; in assay [3], 10%; in the assay on Avena fatua (AVEFA) [4], 10%; in the assay with Lolium perenne (LOLPE) [5], 70%; in assay [6], 80%. Moreover, the values for the pest or weed control at 250 g/ha (in assay [7]; in the assay on Avena fatua (AVEFA) [8]) were 50% and 70%, respectively.

In the case of `CCc1cc(-c2ccc(F)cc2)ccc1C1=C(O)C(C)(C)OC(C)(C)C1=O` [Compound A-50], the pest or weed control at 250 g/ha stood at 100% in the assay on Lolium perenne (LOLPE) [1]; 60% in assay [2]; 90% in assay [3]; 60% in the assay on Avena fatua (AVEFA) [4]; 100% in the assay with Lolium perenne (LOLPE) [5]; 90% in assay [6]. The pest or weed control at 250 g/ha in assay [7] was 100%; in the assay on Avena fatua (AVEFA) [8], 80%.

Take `CCc1cc(-c2ccc(F)c(OC)c2)ccc1C1=C(O)C(C)(COC)OC(C)(C)C1=O` (stereo not shown) [Compound A-112]: the pest or weed control at 250 g/ha is 90% in the assay on Lolium perenne (LOLPE) [1]; 80% in assay [2]; 100% in assay [3]; 80% in the assay with Avena fatua (AVEFA) [4]; 90% in the assay on Lolium perenne (LOLPE) [5]; 80% in assay [6]. Further, the pest or weed control at 250 g/ha in assay [7] is 100%; in the assay on Avena fatua (AVEFA) [8] it was 80%.

`CCc1cc(-c2cc(F)c(F)cc2F)ccc1C1=C(O)C(C)(C)OC(C)(C)C1=O` [Compound A-86]: the pest or weed control at 250 g/ha in the assay with Lolium perenne (LOLPE) [1] stood at 0%; in assay [2] it was 0%; in assay [3] it was 0%; in the assay with Avena fatua (AVEFA) [4], 0%; with Lolium perenne (LOLPE) [5], 90%; in assay [6], 80%. Also, the pest or weed control at 250 g/ha in assay [7] worked out at 100%; in the assay with Avena fatua (AVEFA) [8], 70%.

Take `CCc1cc(-c2ccc(F)c(F)c2F)ccc1C1=C(O)C(C)(C)SC(C)(C)C1=O` [Compound B-9]: the pest or weed control at 250 g/ha in the assay with Lolium perenne (LOLPE) [1] turned out to be 10%; in assay [2], 10%; in assay [3] it was 0%; in the assay on Avena fatua (AVEFA) [4], 0%; in the assay on Lolium perenne (LOLPE) [5], 60%; in assay [6], 60%. Also, the figures for the pest or weed control at 250 g/ha (in assay [7]; in the assay with Avena fatua (AVEFA) [8]) were 40% and 80%, respectively.

On to `CCc1cc(-c2cc(F)c(F)c(F)c2)ccc1C1=C(O)C(C)(CC)OC(C)(C)C1=O` (stereo not shown) [Compound A-120], for which the pest or weed control at 250 g/ha in the assay on Lolium perenne (LOLPE) [1] came to 90%; in assay [2] it was 60%; in assay [3], 70%; in the assay with Avena fatua (AVEFA) [4], 40%; with Lolium perenne (LOLPE) [5], 100%; in assay [6] it was 100%. For the same compound, the pest or weed control at 250 g/ha (in assay [7]; in the assay with Avena fatua (AVEFA) [8]) was 100% throughout.

In the case of `CCc1cc(-c2ccc(F)cc2)ccc1C1=C(O)C(C)(CC)OC(C)(CC)C1=O` (stereo not shown) [Compound A-104], the pest or weed control at 250 g/ha came to 60% in the assay with Lolium perenne (LOLPE) [1]; 50% in assay [2]; 40% in assay [3]; 0% in the assay with Avena fatua (AVEFA) [4]; 60% with Lolium perenne (LOLPE) [5]; 90% in assay [6]. In addition, the pest or weed control at 250 g/ha in assay [7] is 90%; with Avena fatua (AVEFA) [8], 10%.

Take `CCc1cc(-c2cc(F)c(F)c(F)c2)ccc1C1=C(O)C(C)(C)OC(C)(C)C1=O` [Compound A-84]: the pest or weed control at 250 g/ha in the assay on Lolium perenne (LOLPE) [1] was 70%; in assay [2] it was 30%; in assay [3], 30%; in the assay on Avena fatua (AVEFA) [4], 40%; in the assay on Lolium perenne (LOLPE) [5], 100%; in assay [6], 80%. The pest or weed control at 250 g/ha (in assay [7]; in the assay with Avena fatua (AVEFA) [8]) was 100% throughout.

Take `CCc1cc(-c2cc(Cl)cc(C(F)(F)F)c2)ccc1C1=C(O)C(C)(C)OC(C)(C)C1=O` [Compound A-83]: the pest or weed control at 250 g/ha with Lolium perenne (LOLPE) [1] worked out at 0%; in assay [2], 0%; in assay [3], 0%; with Avena fatua (AVEFA) [4], 0%; in the assay on Lolium perenne (LOLPE) [5], 70%; in assay [6], 80%. The pest or weed control at 250 g/ha in assay [7] is 80%; in the assay with Avena fatua (AVEFA) [8] it was 50%.

`CCc1cc(-c2ccc(F)cc2)ccc1C1=C(O)C(C)(CC)OC(C)(C)C1=O` (stereo not shown) [Compound A-102]: the pest or weed control at 250 g/ha with Lolium perenne (LOLPE) [1] amounted to 70%; in assay [2], 60%; in assay [3] it was 30%; in the assay with Avena fatua (AVEFA) [4] it was 10%; in the assay with Lolium perenne (LOLPE) [5] it was 90%; in assay [6], 100%. In addition, the results for the pest or weed control at 250 g/ha (in assay [7]; in the assay with Avena fatua (AVEFA) [8]) were 90% and 80%, respectively.

Consider `CCc1cc(-c2ccc(Cl)c(Cl)c2)ccc1C1=C(O)C(C)(C)OC(C)(C)C1=O` [Compound A-38], for which the pest or weed control at 250 g/ha in the assay with Lolium perenne (LOLPE) [1] stood at 70%; in assay [2], 0%; in assay [3] it was 50%; in the assay on Avena fatua (AVEFA) [4] it was 0%; in the assay on Lolium perenne (LOLPE) [5], 70%; in assay [6], 80%. Besides, the pest or weed control at 250 g/ha was 80% in assay [7] and 50% in the assay on Avena fatua (AVEFA) [8].
